Measured values: US7902195B2, “Pyridine [3,4-b] pyrazinones” (Pharmacia & Upjohn Company LLC, priority 2006, dated 2011)

Target: T1, PDE5 enzyme isolated from human platelets (Homo sapiens, UniProt O76074)
T1 construct: The PDE5 enzyme for use in the assay can be obtained from human platelets; from tissue; host or cells: human platelets
Assay: Alternative human platelet PDE5 enzyme inhibition scintillation proximity assay (Method 2)
Type: biochemical
Conditions: cGMP substrate 50 nM, 60 minutes at room temperature
Text: The IC50 of a test compound can be measured using an in vitro assay using PDE5 enzyme isolated from human platelets. The IC50 is the concentration of test compound required to inhibit the hydrolysis of cGMP to GMP by the PDE5 enzyme by 50% relative to the activity of uninhibited controls. The PDE5 enzyme for use in the assay can be obtained from human platelets by appropriate modification of the method of Thompson, W J et al.; Biochemistry 18(23), 5228-5237, 1979, as described by Ballard S A et al.; J. Urology 159(6), 2164-2171, 1998. The PDE5 enzyme so obtained can be used to catalyze the hydrolysis of [^3H]cGMP (Amersham Biosciences) to 5′ nucleotide [^3H]GMP. The [^3H]GMP binds to yttrium silicate SPA beads (Amersham Biosciences) and is detected by scintillation counting. More specifically, the effect of a test compound at different concentrations can be evaluated in the assay by contacting the compound with a fixed amount of PDE5 enzyme in the presence of substrate (cGMP […] in a 3:1 ratio unlabelled to [^3H]-labeled). Scintillation counting can be used as described above to determine relative PDE5 enzyme activity. The inhibition of PDE5 enzyme activity is then calculated relative to total PDE5 enzyme activity of uninhibited controls.
Method 2: Alternative Human Platelet PDE5 Enzyme Inhibition Scintillation Proximity Assay
PDE5 IC50 Assay: 96-Well Microtiter Plate Format
Buffer A: 20 mM Tris-HCl, 5 mM MgCl2, pH 7.4
Buffer B: 2 mg/ml BSA in Buffer A (enzyme buffer)
cGMP substrate: Final concentration of 50 nM in assay
The amount of ^3H-labeled substrate added depends upon the specific activity of [^3H]cGMP, and it is diluted in Buffer A.
PDE enzyme: Prepared in Buffer B. The dilution factor is determined by enzyme activity.
SPA beads: 4 mg/ml suspension prepared in dH2O.
Stocks of standard and test compound are prepared at 2 mM in 100% DMSO. The test compound is serially diluted in a dilution plate using an 8-point ⅕ log dilution format such that the starting concentration in the assay is 2 μM for an initial IC50 screen. 27 μl of Buffer A are added to the wells of the assay plates. From the dilution plate, 3 μl of diluted compound is delivered in duplicate or 3 μl of 100% DMSO (for positive and negative controls) are added. 30 μl of enzyme are added. For the negative control wells, Buffer B is substituted in place of the enzyme. 30 μl of labeled substrate are added to all wells.
After incubating for 60 minutes at room temperature, the reaction is stopped with the addition of 30 μl of the yttrium silicate beads. These beads are dense and require constant agitation while being added to the plate. The plates are sealed and shaken on a plate shaker for fifteen minutes to allow the beads to bind the GMP product.
After allowing the beads to settle for 30 minutes, plates are read on a NXT TopCount scintillation counter and the data are analyzed as follows. Percent inhibition values are calculated using the means of the 0% and 100% controls on each plate. The estimates of the 4-parameters of the logistic, sigmoid dose-response model are then calculated using the well-level percent inhibition value for the compound. The formula for the four-parameter logistic model may be expressed as Y=((a−d)/(1+(X/c)^b))+d, where Y is the response, X is the concentration, a is the lower asymptote (minimum response), d is the upper asymptote (maximum response), c is the model IC50 (in the same units as X), and b is the slope (as described in De Lean, A., P. J. Munson, and D. Rodbard (“Simultaneous analysis of families of sigmoidal curves: application to bioassay, radioligand assay, and physiological dose-response curves.” Am. J. Physiol. 235(2): E97-E102, 1978). These estimates are used to calculate the concentration that corresponds to 50% inhibition.
Compounds were tested in accordance with Method 2 above yielding the IC50 values described in Table C.

Compound	IC50
CCCOCCn1c(=O)c(N2CCCN(CCO)CC2)nc2cnc(-c3ccc(OC)nc3)cc21 [Example 12, 3-[4-(2-hydroxyethyl)-1,4-diazepan-1-yl]-7-(6-methoxypyridin-3-yl)-1-(2-propoxyethyl)pyrido[3,4-b]pyrazin-2(1H)-one]	0.721 nM
CCCOCCn1c(=O)c(N2CCCC(CO)C2)nc2cnc(-c3ccc(OC)nc3)cc21 (stereo not shown) [Example 6, 3-[3-(hydroxymethyl)piperidin-1-yl]-7-(6-methoxypyridin-3-yl)-1-(2-propoxyethyl)pyrido[3,4-b]pyrazin-2(1H)-one]	0.313 nM
CCCOCCn1c(=O)c(N2CCN(CCO)CC2)nc2cnc(-c3ccc(CO)cc3)cc21 [Example 23, 3-(4-(2-hydroxyethyl)piperazin-1-yl)-7-(4-(hydroxymethyl)phenyl)-1-(2-propoxyethyl)pyrido[3,4-b]pyrazin-2(1H)-one]	1790 nM
CCCOCCn1c(=O)c(N2CCN(CC(=O)O)CC2)nc2cnc(-c3ccc(OC)nc3)cc21 [Example 8, {4-[7-(6-methoxypyridin-3-yl)-2-oxo-1-(2-propoxyethyl)-1,2-dihydropyrido[3,4-b]pyrazin-3-yl]piperazin-1-yl}acetic acid]	0.517 nM
CCCOCCn1c(=O)c(N2CCN(CCO)CC2)nc2cnc(-c3ccc(OC)nc3)cc21 [Example 5, 3-[4-(2-hydroxyethyl)piperazin-1-yl]-7-(6-methoxypyridin-3-yl)-1-(2-propoxyethyl)pyrido[3,4-b]pyrazin-2(1H)-one]	0.203 nM
CCCOCCn1c(=O)c(N2CCN(CCO)CC2)nc2cnc(-c3ccc(OC(C)C)cc3)cc21 [Example 21, 3-(4-(2-hydroxyethyl)piperazin-1-yl)-7-(4-isopropoxyphenyl)-1-(2-propoxyethyl)pyrido[3,4-b]pyrazin-2(1H)-one]	413 nM
CCCOCCn1c(=O)c(N2CCCC(O)C2)nc2cnc(-c3ccc(OC)nc3)cc21 (stereo not shown) [Example 4, 3-(3-hydroxypiperidin-1-yl)-7-(6-methoxypyridin-3-yl)-1-(2-propoxyethyl)pyrido[3,4-b]pyrazin-2(1H)-one]	0.225 nM
7-(4-(dimethylamino)-2-methylphenyl)-3-(4-(2-hydroxyethyl)piperazin-1-yl)-1-(2-propoxyethyl)pyrido[3,4-b]pyrazin-2(1H)-one [Example 15]	1190 nM
CCCOCCn1c(=O)c(N2CCN(CCO)CC2)nc2cnc(-c3ccc(F)cc3F)cc21 [Example 18, 7-(2,4-difluorophenyl)-3-(4-(2-hydroxyethyl)piperazin-1-yl)-1-(2-propoxyethyl)pyrido[3,4-b]pyrazin-2(1H)-one]	29.9 nM
CCCOCCn1c(=O)c(N2CCOCC2)nc2cnc(-c3ccc(OC)nc3)cc21 [Example 3, 7-(6-methoxypyridin-3-yl)-3-morpholin-4-yl-1-(2-propoxyethyl)pyrido[3,4-b]pyrazin-2(1H)-one]	1.01 nM
CCCOCCn1c(=O)c(N2CCN(CCO)CC2)nc2cnc(-c3cccc4cnccc34)cc21 [Example 22, 3-(4-(2-hydroxyethyl)piperazin-1-yl)-7-(isoquinolin-5-yl)-1-(2-propoxyethyl)pyrido[3,4-b]pyrazin-2(1H)-one]	> 2000 nM

Other lines, results leading:

IC50	Compound
18.1 nM	CCCOCCn1c(=O)c(N2CCN(CCO)CC2)nc2cnc(-c3ccccc3O)cc21 [Example 37, 3-(4-(2-hydroxyethyl)piperazin-1-yl)-7-(2-hydroxyphenyl)-1-(2-propoxyethyl)pyrido[3,4-b]pyrazin-2(1H)-one]
0.226 nM	CCCOCCn1c(=O)c(N2CCN(C[C@@H](C)O)CC2)nc2cnc(-c3ccc(OC)nc3)cc21 [Example 47, 3-(4-((R)-2-hydroxypropyl)piperazin-1-yl)-7-(6-methoxypyridin-3-yl)-1-(2-propoxyethyl)pyrido[3,4-b]pyrazin-2(1H)-one]
0.208 nM	CCCOCCn1c(=O)c(N2CCN(CC(C)(C)O)CC2)nc2cnc(-c3ccc(OC)nc3)cc21 [Example 43, 3-(4-(2-hydroxy-2-methylpropyl)piperazin-1-yl)-7-(6-methoxypyridin-3-yl)-1-(2-propoxyethyl)pyrido[3,4-b]pyrazin-2(1H)-one]
0.249 nM	CCCOCCn1c(=O)c(N2CCC(C(N)=O)CC2)nc2cnc(-c3ccc(OC)nc3)cc21 [Example 41, 1-(1,2-dihydro-7-(6-methoxypyridin-3-yl)-2-oxo-1-(2-propoxyethyl)pyrido[3,4-b]pyrazin-3-yl)piperidine-4-carboxamide]
0.295 nM	CCCOCCn1c(=O)c(N2CCN([C@H](C)[C@@H](C)O)CC2)nc2cnc(-c3ccc(OC)nc3)cc21 [Example 45, 3-(4-((2R,3R)-3-hydroxybutan-2-yl)piperazin-1-yl)-7-(6-methoxypyridin-3-yl)-1-(2-propoxyethyl)pyrido[3,4-b]pyrazin-2(1H)-one]
9.31 nM	CCCOCCn1c(=O)c(N2CCN(CCO)CC2)nc2cnc(-c3ccc(C)cc3)cc21 [Example 27, 3-(4-(2-hydroxyethyl)piperazin-1-yl)-1-(2-propoxyethyl)-7-p-tolylpyrido[3,4-b]pyrazin-2(1H)-one]
0.306 nM	CCCOCCn1c(=O)c(N2CCN(C[C@H](C)O)CC2)nc2cnc(-c3ccc(OC)nc3)cc21 [Example 46, 3-(4-((S)-2-hydroxypropyl)piperazin-1-yl)-7-(6-methoxypyridin-3-yl)-1-(2-propoxyethyl)pyrido[3,4-b]pyrazin-2(1H)-one]
0.217 nM	CCCOCCn1c(=O)c(N2CCN(CC)CC2)nc2cnc(-c3ccc(OC)nc3)cc21 [Example 39, 3-(4-ethylpiperazin-1-yl)-7-(6-methoxypyridin-3-yl)-1-(2-propoxyethyl)pyrido[3,4-b]pyrazin-2(1H)-one]
1400 nM	CCCOCCn1c(=O)c(N2CCN(CCO)CC2)nc2cnc(-c3ccc(OCC)cc3)cc21 [Example 24, 7-(4-ethoxyphenyl)-3-(4-(2-hydroxyethyl)piperazin-1-yl)-1-(2-propoxyethyl)pyrido[3,4-b]pyrazin-2(1H)-one]
423 nM	CCCOCCn1c(=O)c(N2CCN(CCO)CC2)nc2cnc(-c3cccc(C)c3)cc21 [Example 36, 3-(4-(2-hydroxyethyl)piperazin-1-yl)-1-(2-propoxyethyl)-7-m-tolylpyrido[3,4-b]pyrazin-2(1H)-one]
12.6 nM	CCCOCCn1c(=O)c(N2CCN(CCO)CC2)nc2cnc(-c3cc(Cl)ccc3F)cc21 [Example 34, 7-(5-chloro-2-fluorophenyl)-3-(4-(2-hydroxyethyl)piperazin-1-yl)-1-(2-propoxyethyl)pyrido[3,4-b]pyrazin-2(1H)-one]
0.33 nM	CCCOCCn1c(=O)c(N2CCN([C@@H](C)[C@@H](C)O)CC2)nc2cnc(-c3ccc(OC)nc3)cc21 [Example 44, 3-(4-((2S,3R)-3-hydroxybutan-2-yl)piperazin-1-yl)-7-(6-methoxypyridin-3-yl)-1-(2-propoxyethyl)pyrido[3,4-b]pyrazin-2(1H)-one]
1.87 nM	CCCOCCn1c(=O)c(N2CCN(CCO)CC2)nc2cnc(-c3ccc(F)c(C)c3)cc21 [Example 25, 7-(4-fluoro-3-methylphenyl)-3-(4-(2-hydroxyethyl)piperazin-1-yl)-1-(2-propoxyethyl)pyrido[3,4-b]pyrazin-2(1H)-one]
158 nM	CCCOCCn1c(=O)c(N2CCN(CCO)CC2)nc2cnc(-c3cccc(OCC)c3)cc21 [Example 32, 7-(3-ethoxyphenyl)-3-(4-(2-hydroxyethyl)piperazin-1-yl)-1-(2-propoxyethyl)pyrido[3,4-b]pyrazin-2(1H)-one]
